{"source": "patent US20090031435A1", "about": "“SMA Therapy and Cell Based Assay” (priority 2002, published 2009)", "key": {"[1]": {"system": "SMN2-luciferase reporter construct", "assay": "SMN2-luciferase splicing reporter luminescence assay in C33A cells", "format": "cell-based, human", "description": "(§1) In a screen to identify compounds capable of enhancing the inclusion of exon 7 in SMN2 mRNA, cells of the human cervical carcinoma cell line C33A (ATCC#HTB-31) were stably transformed with an SMN fragment/luciferase reporter gene construct that incorporated exons 6-8 of SMN1 or SMN2 for use in a high-throughput screening assay. These cells were cultured in Dulbecco's Modified Eagle's Medium (DMEM) with 10% Fetal Bovine Serum (Sigma F 2442), 50 units/mL penicillin 50 μg/mL streptomycin sulfate and 400 mg/L G418 (i.e. Geneticin, Gibco, cat. No. 11811-031). The assay medium used to perform the luciferase assay was identical to the growth medium except the G418 selection agent was omitted. To perform the luciferase assay, a single reagent (25 mM glycylglycine, 15 mM magnesium sulfate, 4 mM EGTA, adjusted to pH 7.85, to which is added 10 μM D-luciferin (Sigma L9504), 10 mM dithiothreitol (DTT, Roche Molecular Biochemicals 100034), 2 mM adenosine 5′-triphosphate (ATP, Sigma A7699), 50 μM CoenzymeA, sodium salt (Sigma C 3144) and 1.5% Triton X-100) was used to lyse the cells and to initiate the luciferase reaction.\n(§2) Using this cell-based luminescence assay, a screen was performed to identify compounds that modulate SMN splicing. Stably transfected C33A cells (˜35-40 M cells/flask) were cultured, then removed from T-175 culture flasks with 3 mL trypsin, and quenched with 7 mL assay medium. The cells were spun down and re-suspended in assay medium to a concentration of ˜200,000 cells/mL. Cells were immediately seeded in 384-well assay plates (Nalge Nunc white plates, #164610) 57 μL/well for a cell density of 11,000 cells/well. Compounds from a library obtained from the National Institute of Neurological Disorders and Stroke (NINDS) were added to the cells to a final concentration of 10 μM (diluted with assay medium by 1000× from the 10 mM stock solution in DMSO). The cells were incubated with the test compounds at 37° C. for ˜48 hr. A Zymark Sciclone ALH was used for cell seeding and compound addition. After incubation, the assay plates were cooled to room temperature for ˜10-60 minutes. The medium and compounds were aspirated from the wells, followed by 6 rinse/aspirate cycles with a PBS solution. 53 μL of the luciferase assay reagent was added and the plate was immediately transferred to a luminescence plate reader. The plate was shaken for 30 minutes prior to reading. The plate processing steps were performed on an integrated Packard Minitrak/Sidetrak platereader.\n(§3) To analyze the data, the dark count background was first subtracted from all luminescence readings. The signal from each compound treated well was divided by the average of 48 control wells on the same 384-well plate. Each compound library plate was tested in triplicate with each of the two cell lines, and the entire assay was repeated on two separate occasions, yielding six readings for each compound for each cell line. The highest and lowest of the six normalized readings were dropped and the remaining four readings averaged. These average values of compound-treated luminescence versus control luminescence are denoted “Xnorm(y)”, where X indicates the cell line, SMN1-luciferase or SMN2-luciferase, and y represents the compound. The difference of [SMN2norm(y)−SMN1norm(y)] measures the selective change in SMN2-luciferase expression versus change in SMN1 luciferase production upon treatment with compound y. This is the final score that is output.\n(§4) These dilutions were created with a Zymark Sciclone ALH Z-8. Once created, the assay was performed as described for the screening process. Concentrations required to achieve 50% of the maximally achievable effect for each compound (“EC50”) were calculated using Xlfit (IDBS)."}, "[2]": {"system": "SMN2-luciferase reporter construct", "assay": "SMN2-luciferase splicing reporter luminescence assay in NSC34 cells", "format": "cell-based, mouse", "excerpt": "For example, when luciferase is used as the reporter gene in an SMN splicing assay, synthesis of full-length protein can be monitored by luminescence; positive drug candidates will elicit an increase in the amount of luminescence produced from an SMN2-luciferase cassette, which is normally inefficiently spliced, but will not affect the level of luminescence in cells expressing the SMN1-luciferase reporter (because SMN1 transcripts are normally spliced to include exon 7 about 100% of the time). ELISA, Western blotting or gem counts (obtained using indirect immunofluorescence microscopy) can be used to verify the increase in SMN2-luciferase protein levels, and analysis by RNAase protection, Northern blot or RT-PCR, such as quantitative or semiquantitative, can be used to determine whether the effect of the compound is at the level of splicing or mRNA stability. Identification of a role for indoprofen or analogs of this compound in SMN splicing in vitro can be achieved through the generation of stable cell lines expressing the SMN-reporter gene (e.g., SMN-luciferase) splicing cassette. For example, the embryonic mouse spinal cord cell line NSC34 and the human cervical carcinoma cell line C33A can be used for the methods of the invention. […]"}, "SMN1-luciferase control": {"system": "SMN1-luciferase control", "assay": "SMN1-luciferase control splicing reporter luminescence assay in C33A cells", "format": "cell-based, human", "description": "as §1, §2, §3, §4"}}}
{"smiles": "CC(Cc1ccccc1)C(=O)O", "note": "(stereo not drawn) [Alpha-methylhydrocinnamic acid]", "values": [{"measurement": "Effect on splicing of SMN2-luciferase in C33A cells", "setting": "[1]", "value": "Decreased"}, {"measurement": "Effect on splicing of SMN2-luciferase in NSC34 cells", "setting": "[2]", "value": "(no effect in NSC34"}, {"measurement": "Effect on splicing of SMN1-luciferase control in C33A cells", "setting": "SMN1-luciferase control", "value": "Decreased"}]}
